Source: patent publication US20260226068A1, “IMIDAZOTRIAZINE IL-17A MODULATORS AND USES THEREOF” (DICE ALPHA, INC., priority 2023, published 2026)

What was measured:
[1] = biological target: T1, IL-17A/A (Homo sapiens, UniProt Q16552); assay: IL-17A/A HEK-Blue cell assay (SEAP reporter); type: cell-based; settings: HEK-Blue IL-17A reporter cells, IL17A/A 5 ng/mL, 20 hours, SEAP read at A630; read-out: HEK-Blue IL17AA (IC50 for IL-17A/A inhibition)
T1 construct: purchased Genscript Z03228
T1 sequence (Q16552 24-155): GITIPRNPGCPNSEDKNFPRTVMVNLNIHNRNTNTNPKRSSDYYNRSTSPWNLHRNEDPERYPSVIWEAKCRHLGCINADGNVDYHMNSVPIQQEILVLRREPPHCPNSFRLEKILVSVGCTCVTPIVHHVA

[2] = Mouse oral bioavailability; type: in vivo; settings: C57BL/6J mice, PO 10 mg/kg vs IV 1 mg/kg, plasma AUC, read-out: % F (Mouse), oral bioavailability
Method: The test compound is administered to C57BL/6J mice intravenously (IV) at 1 mg/kg or orally (PO) at 10 mg/kg using vehicles composed of 10% DMA, 70% Polyethylene glycol 400, and 20% purified water; or 10% DMA, 50% Polyethylene glycol 400, and 40% purified water. Serial blood collections occur at 0.08, 0.25, 0.5, 1, 2, 4, 8 and 24 h post IV bolus dose administration, and 0.25, 0.5, 1, 2, 4, 8 and 24 h post oral dose administration. Blood samples are treated with EDTA anticoagulant. Plasma is isolated by centrifugation and stored at −70° C. until analysis by LC-MS/MS. Test article concentration is determined in plasma and uploaded into the Phoenix WinNonlin system where noncompartmental analysis is used to calculate Area Under the Curve (AUC) for both IV and PO arms. Bioavailability (% F) is calculated via the following equation,
% F=(AUCPO×DoseIV)/(AUCIV×DosePO)×100

[3] = biological target: T2, IL-17A/F (Homo sapiens, UniProt Q16552+Q96PD4); assay: IL-17A/F HEK-Blue cell assay (SEAP reporter); type: cell-based; settings: HEK-Blue IL-17A reporter cells, IL17A/F 5 ng/mL, 20 hours, SEAP read at A630; read-out: HEK-Blue IL17AF (IC50 for IL-17A/F inhibition)
T2 construct: purchased R&D Systems
T2 sequence (Q16552 24-155): T1 sequence (Q16552 24-155)
T2 sequence (Q96PD4 31-163): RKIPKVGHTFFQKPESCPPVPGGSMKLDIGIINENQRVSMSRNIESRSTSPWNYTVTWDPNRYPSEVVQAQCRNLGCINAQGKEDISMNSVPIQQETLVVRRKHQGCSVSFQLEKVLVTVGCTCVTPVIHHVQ

| SMILES | IC50 [1] [nM] | bioavailability [2] [%] | IC50 [3] [nM] |
| --- | --- | --- | --- |
| CCn1nccc1C(=O)N[C@H](c1cn2nc(CC3C[C@@H](C(F)(F)F)CNC3=O)c(N3CCO[C@H](C)C3)nc2n1)[C@@H]1CCCC(F)(F)C1 (single isomer, unassigned) [Compound 122] | < 100 | 51 | < 100 |
| CCn1nccc1C(=O)N[C@H](c1cn2nc(C[C@H]3C[C@@H](C(F)(F)F)CNC3=O)c(C3CCOC3)nc2n1)[C@H]1CCCC(F)(F)C1 (single isomer, unassigned) [Compound 204] | < 100 | 27 | 100 to 1000 |
| O=C(N[C@H](c1cn2nc(CC3C[C@@H](C(F)(F)F)CNC3=O)c(N3CCOCC3)nc2n1)C1CCC(F)(F)CC1)c1nonc1C1CC1 (stereo partly drawn) [Compound 56] | < 100 | 87 | > 1000 |
| CCn1nccc1C(=O)N[C@H](c1cn2nc(C[C@H]3C[C@@H](C(F)(F)F)CNC3=O)c(C3CCOCC3)nc2n1)C1CCC(F)(F)CC1 [Compound 88, N-((1S)-(4,4-difluorocyclohexyl)(2-(((3R,5R)-2-oxo-5-(trifluoromethyl)piperidin-3-yl)methyl)-3-(tetrahydro-2H-pyran-4-yl)imidazo[1,2-b][1,2,4]triazin-6-yl)methyl)-1-ethyl-1H-pyrazole-5-carboxamide] | < 100 | 69 | 100 to 1000 |
| Cc1nonc1C(=O)N[C@H](c1cn2nc(C[C@H]3C[C@@H](C(F)(F)F)CNC3=O)c(C3CCOCC3)nc2n1)C1CCC(F)(F)CC1 [Compound 148, N-((1S)-(4,4-difluorocyclohexyl)(2-(((3R,5R)-2-oxo-5-(trifluoromethyl)piperidin-3-yl)methyl)-3-(tetrahydro-2H-pyran-4-yl)imidazo[1,2-b][1,2,4]triazin-6-yl)methyl)-4-methyl-1,2,5-oxadiazole-3-carboxamide] | < 100 | 91 | > 1000 |
| CCn1nccc1C(=O)N[C@H](c1cn2nc(C[C@H]3C[C@@H](C(F)(F)F)CNC3=O)c(C3CC4CCC(C3)O4)nc2n1)C1CCC(F)(F)CC1 (stereo partly drawn) [Compound 153, N-((1S)-(3-(8-oxabicyclo[3.2.1]octan-3-yl)-2-(((3R,5R)-2-oxo-5-(trifluoromethyl)piperidin-3-yl)methyl)imidazo[1,2-b][1,2,4]triazin-6-yl)(4,4-difluorocyclohexyl)methyl)-1-ethyl-1H-pyrazole-5-carboxamide] | < 100 | 43 | 100 to 1000 |
| CC(C)n1ncnc1C(=O)N[C@H](c1cn2nc(C[C@H]3C[C@@H](C(F)(F)F)CNC3=O)c(C3CCOCC3)nc2n1)C1CCC(F)(F)CC1 [Compound 229] | < 100 | 83 | > 1000 |
